Toxic doses and inconclusive results are not listed.
System: L1210 leukemia ip in BDF1 mice, survival T/C
Experiment: NCI In Vivo Anticancer Drug Screen. Data for tumor model L1210 Leukemia (intraperitoneal) in B6D2F1 (BDF1) mice
Details: endpoint: mean survival time, higher = longer survival
How it was run: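 Value reflects the ratio of survival in compound-treated mice to survival in vehicle-treated controls, with both groups carrying the same transplanted tumor.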

[1] = dose: 25.0 mg/kg/injection, schedule: Q04DX003 (ip), vehicle: saline with Tween-80
[2] = dose: 50.0 mg/kg/injection, schedule: Q04DX003 (ip), vehicle: saline with Tween-80
[3] = dose: 100.0 mg/kg/injection, schedule: Q04DX003 (ip), vehicle: saline with Tween-80
[4] = dose: 100.0 mg/kg/injection, schedule: Q04DX003 (ip), vehicle: Klucel (hydroxypropylcellulose) (HPC)
[5] = dose: 200.0 mg/kg/injection, schedule: Q04DX003 (ip), vehicle: Klucel (hydroxypropylcellulose) (HPC)
[6] = dose: 400.0 mg/kg/injection, schedule: Q04DX003 (ip), vehicle: Klucel (hydroxypropylcellulose) (HPC)
[7] = dose: 100.0 mg/kg/injection, schedule: Q01DX009 (ip), vehicle: Klucel (hydroxypropylcellulose) (HPC)
[8] = dose: 200.0 mg/kg/injection, schedule: Q01DX009 (ip), vehicle: Klucel (hydroxypropylcellulose) (HPC)
[9] = dose: 400.0 mg/kg/injection, schedule: Q01DX009 (ip), vehicle: Klucel (hydroxypropylcellulose) (HPC)
[10] = dose: 100.0 mg/kg/injection, schedule: Q01DX001 (ip), vehicle: carboxymethylcellulose (CMC)
[11] = dose: 200.0 mg/kg/injection, schedule: Q01DX001 (ip), vehicle: carboxymethylcellulose (CMC)
[12] = dose: 400.0 mg/kg/injection, schedule: Q01DX001 (ip), vehicle: carboxymethylcellulose (CMC)
[13] = dose: 100.0 mg/kg/injection, schedule: Q04DX002 (ip), vehicle: Klucel (hydroxypropylcellulose) (HPC)
[14] = dose: 200.0 mg/kg/injection, schedule: Q04DX002 (ip), vehicle: Klucel (hydroxypropylcellulose) (HPC)
[15] = dose: 400.0 mg/kg/injection, schedule: Q04DX002 (ip), vehicle: Klucel (hydroxypropylcellulose) (HPC)
[16] = dose: 100.0 mg/kg/injection, schedule: Q01DX001 (ip), vehicle: saline

CS(=O)(=O)OCCNc1ccc([N+](=O)[O-])cc1
T/C (dose: 1.0 mg/kg/injection, schedule: Q01DX001 (ip), vehicle: saline): 101 % of control | T/C (dose: 2.0 mg/kg/injection, schedule: Q01DX001 (ip), vehicle: saline): 101 % of control | T/C (dose: 4.0 mg/kg/injection, schedule: Q01DX001 (ip), vehicle: saline): 98 % of control | T/C (dose: 8.0 mg/kg/injection, schedule: Q01DX001 (ip), vehicle: saline): 104 % of control | T/C (dose: 38.0 mg/kg/injection, schedule: Q01DX015 (ip), vehicle: saline): 98 % of control | T/C (dose: 57.0 mg/kg/injection, schedule: Q01DX015 (ip), vehicle: saline): 95 % of control | T/C (dose: 85.0 mg/kg/injection, schedule: Q01DX015 (ip), vehicle: saline): 93 % of control

CC(=O)CC(Br)CBr (centres undefined)
T/C [1]: 91 % of control | T/C [2]: 98 % of control | T/C [3]: 100 % of control

Nc1ccn(C2OC(CO)C(OP(=O)(O)O)C2O)c(=O)n1 (centres undefined)
T/C (dose: 40.0 mg/kg/injection, schedule: Q01DX001 (ip), vehicle: water): 102 % of control | T/C (dose: 80.0 mg/kg/injection, schedule: Q01DX001 (ip), vehicle: water): 97 % of control

CC(=O)Nc1ccc(Cl)c(Cl)c1
T/C [4]: 107 % of control | T/C (dose: 100.0 mg/kg/injection, schedule: Q04DX003 (ip), vehicle: other): 101 % of control | T/C [5]: 114 % of control | T/C (dose: 200.0 mg/kg/injection, schedule: Q04DX003 (ip), vehicle: other): 98 % of control | T/C [6]: 87 % of control | T/C (dose: 400.0 mg/kg/injection, schedule: Q04DX003 (ip), vehicle: other): 101 % of control

COc1cc([N+](=O)[O-])ccc1NC(=O)c1c(Br)c(Br)c(Br)c(Br)c1C(=O)O
T/C [7]: 101 % of control | T/C [8]: 106 % of control | T/C [9]: 106 % of control

CC(O)(C(=O)O)c1ccc(Cl)c(Cl)c1 (centres undefined)
T/C (dose: 12.5 mg/kg/injection, schedule: Q01DX009 (ip), vehicle: saline with Tween-80): 93 % of control | T/C (dose: 25.0 mg/kg/injection, schedule: Q01DX009 (ip), vehicle: saline with Tween-80): 93 % of control | T/C (dose: 50.0 mg/kg/injection, schedule: Q01DX009 (ip), vehicle: saline with Tween-80): 89 % of control | T/C (dose: 200.0 mg/kg/injection, schedule: Q01DX009 (ip), vehicle: saline with Tween-80): 100 % of control

C=CCc1cc2c(cc(OC)c1=O)C(NC(C)=O)CCc1cc(OC)c(OC)c(OC)c1-2 (centres undefined)
T/C [10]: 106 % of control | T/C [11]: 109 % of control | T/C [12]: 114 % of control

Cc1ccc(C(c2ccccc2)C(COS(C)(=O)=O)COS(C)(=O)=O)cc1 (centres undefined)
T/C (dose: 75.0 mg/kg/injection, schedule: Q04DX002 (ip), vehicle: Klucel (hydroxypropylcellulose) (HPC)): 90 % of control | T/C (dose: 150.0 mg/kg/injection, schedule: Q04DX002 (ip), vehicle: Klucel (hydroxypropylcellulose) (HPC)): 97 % of control | T/C (dose: 300.0 mg/kg/injection, schedule: Q04DX002 (ip), vehicle: Klucel (hydroxypropylcellulose) (HPC)): 108 % of control

O=P(c1cccc(C(F)(F)F)c1)(c1cccc(C(F)(F)F)c1)c1cccc(C(F)(F)F)c1.O=P(c1cccc(C(F)(F)F)c1)(c1cccc(C(F)(F)F)c1)c1cccc(C(F)(F)F)c1.[Cl][Sn]([Cl])([Cl])[Cl]
T/C [13]: 100 % of control | T/C [14]: 96 % of control | T/C [15]: 86 % of control

O=[N+]([O-])c1ccccc1N=Nc1c(O)[nH]c2cccc(C(F)(F)F)c12
T/C (dose: 100.0 mg/kg/injection, schedule: Q01DX001 (ip), vehicle: acetone): 97 % of control | T/C [16]: 103 % of control | T/C (dose: 200.0 mg/kg/injection, schedule: Q01DX001 (ip), vehicle: acetone): 97 % of control | T/C (dose: 400.0 mg/kg/injection, schedule: Q01DX001 (ip), vehicle: acetone): 97 % of control | T/C (dose: 400.0 mg/kg/injection, schedule: Q01DX001 (ip), vehicle: saline): 87 % of control

Cc1c(NC=O)c(=O)n(-c2ccccc2)n1C
T/C [7]: 92 % of control | T/C [4]: 107 % of control | T/C [8]: 93 % of control | T/C [5]: 100 % of control | T/C [9]: 100 % of control | T/C [6]: 105 % of control

O=Cc1ccc2c(c1)C(=O)c1ccccc1C2=O
T/C [13]: 90 % of control | T/C [14]: 97 % of control | T/C [15]: 93 % of control

C/C=C/C(=O)Nc1cccc(OC(=O)NCC)c1
T/C [3]: 95 % of control | T/C (dose: 200.0 mg/kg/injection, schedule: Q04DX003 (ip), vehicle: saline with Tween-80): 93 % of control | T/C (dose: 400.0 mg/kg/injection, schedule: Q04DX003 (ip), vehicle: saline with Tween-80): 98 % of control

C=CCNc1ncnc2c1ncn2C1OC(CO)C(O)C1O (centres undefined)
T/C (dose: 9.5 mg/kg/injection, schedule: Q01DX001 (ip), vehicle: other): 100 % of control | T/C (dose: 19.0 mg/kg/injection, schedule: Q01DX001 (ip), vehicle: other): 97 % of control | T/C (dose: 33.0 mg/kg/injection, schedule: Q01DX009 (ip), vehicle: other): 104 % of control | T/C (dose: 38.0 mg/kg/injection, schedule: Q01DX001 (ip), vehicle: other): 94 % of control | T/C (dose: 112.0 mg/kg/injection, schedule: Q01DX009 (ip), vehicle: other): 166 % of control

O=c1nc(NO)c(Br)cn1C1CCCCO1 (centres undefined)
T/C [10]: 96 % of control | T/C [11]: 96 % of control | T/C [12]: 96 % of control

c1ccc(C2=C(c3ccccc3)SC(c3ccccc3)=C(c3ccccc3)S2)cc1
T/C (dose: 100.0 mg/kg/injection, schedule: Q04DX003 (ip), vehicle: saline): 102 % of control | T/C (dose: 200.0 mg/kg/injection, schedule: Q04DX003 (ip), vehicle: saline): 98 % of control | T/C (dose: 400.0 mg/kg/injection, schedule: Q04DX003 (ip), vehicle: saline): 104 % of control

O=c1ccc2c([nH]1)CCC2
T/C (dose: 25.0 mg/kg/injection, schedule: Q01DX009 (ip), vehicle: saline): 111 % of control | T/C [1]: 94 % of control | T/C (dose: 50.0 mg/kg/injection, schedule: Q01DX009 (ip), vehicle: saline): 121 % of control | T/C [2]: 98 % of control | T/C (dose: 100.0 mg/kg/injection, schedule: Q01DX009 (ip), vehicle: saline): 101 % of control | T/C [4]: 100 % of control | T/C [3]: 94 % of control

O=C(Cl)C1C(c2ccccc2)C1c1ccccc1 (centres undefined)
T/C [3]: 106 % of control

CC(C)C(NC(=O)OCc1ccccc1)C(=O)O (centres undefined)
T/C (dose: 9.37 mg/kg/injection, schedule: Q01DX009 (ip), vehicle: saline): 98 % of control | T/C (dose: 18.75 mg/kg/injection, schedule: Q01DX009 (ip), vehicle: saline): 93 % of control | T/C (dose: 37.5 mg/kg/injection, schedule: Q01DX009 (ip), vehicle: saline): 100 % of control | T/C (dose: 37.5 mg/kg/injection, schedule: Q04DX003 (ip), vehicle: saline): 103 % of control | T/C (dose: 75.0 mg/kg/injection, schedule: Q01DX001 (ip), vehicle: saline): 96 % of control | T/C (dose: 75.0 mg/kg/injection, schedule: Q04DX003 (ip), vehicle: saline): 101 % of control | T/C (dose: 150.0 mg/kg/injection, schedule: Q01DX001 (ip), vehicle: saline): 102 % of control

COc1cc(/C=N/Nc2cc(=O)[nH]c(N)n2)cc(OC)c1OC
T/C [4]: 98 % of control | T/C [5]: 100 % of control | T/C [6]: 100 % of control

C/C=C/S(=O)(=O)c1ccccc1
T/C (dose: 75.0 mg/kg/injection, schedule: Q01DX001 (ip), vehicle: carboxymethylcellulose (CMC)): 100 % of control

OCCNC(c1ccc(Cl)cc1)C(O)c1ccc(Cl)cc1 (centres undefined)
T/C (dose: 50.0 mg/kg/injection, schedule: Q01DX001 (ip), vehicle: saline): 98 % of control | T/C [16]: 98 % of control | T/C (dose: 200.0 mg/kg/injection, schedule: Q01DX001 (ip), vehicle: saline): 98 % of control
